One series addresses LTK (Homo sapiens, UniProt P29376). Description: Inhibition of recombinant human cytoplasmic GST-tagged LTK expressed in baculovirus at 1 uM by Z'-LYTE assay.
A further series has as its target T1, TEC (Homo sapiens, UniProt P42680).
T1 sequence (P42680 whole entry): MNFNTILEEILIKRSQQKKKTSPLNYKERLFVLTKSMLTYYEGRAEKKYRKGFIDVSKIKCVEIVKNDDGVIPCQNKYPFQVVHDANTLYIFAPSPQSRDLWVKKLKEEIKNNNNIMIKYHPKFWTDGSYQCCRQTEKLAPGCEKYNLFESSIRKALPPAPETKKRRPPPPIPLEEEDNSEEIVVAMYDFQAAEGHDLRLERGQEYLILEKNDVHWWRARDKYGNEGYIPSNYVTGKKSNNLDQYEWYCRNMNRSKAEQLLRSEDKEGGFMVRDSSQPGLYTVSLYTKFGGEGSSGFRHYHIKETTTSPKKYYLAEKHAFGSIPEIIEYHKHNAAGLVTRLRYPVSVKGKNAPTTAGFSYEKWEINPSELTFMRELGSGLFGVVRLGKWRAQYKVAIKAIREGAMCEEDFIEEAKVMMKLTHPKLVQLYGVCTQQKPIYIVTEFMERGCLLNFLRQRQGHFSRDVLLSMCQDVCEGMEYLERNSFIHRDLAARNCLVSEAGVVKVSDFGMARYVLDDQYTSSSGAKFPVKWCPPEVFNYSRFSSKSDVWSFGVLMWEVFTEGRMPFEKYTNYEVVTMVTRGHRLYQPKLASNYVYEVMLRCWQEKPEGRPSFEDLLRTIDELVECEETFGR
Put plainly: Inhibition of recombinant human cytoplasmic full length His-tagged TEC expressed in baculovirus at 1 uM by Z'-LYTE assay.

For another series, the target named is EGFR (Homo sapiens, UniProt P00533). Put plainly: Inhibition of recombinant human cytoplasmic GST-tagged EGFR expressed in baculovirus at 1 uM by Z'-LYTE assay.
Sequence of EGFR (P00533 whole entry): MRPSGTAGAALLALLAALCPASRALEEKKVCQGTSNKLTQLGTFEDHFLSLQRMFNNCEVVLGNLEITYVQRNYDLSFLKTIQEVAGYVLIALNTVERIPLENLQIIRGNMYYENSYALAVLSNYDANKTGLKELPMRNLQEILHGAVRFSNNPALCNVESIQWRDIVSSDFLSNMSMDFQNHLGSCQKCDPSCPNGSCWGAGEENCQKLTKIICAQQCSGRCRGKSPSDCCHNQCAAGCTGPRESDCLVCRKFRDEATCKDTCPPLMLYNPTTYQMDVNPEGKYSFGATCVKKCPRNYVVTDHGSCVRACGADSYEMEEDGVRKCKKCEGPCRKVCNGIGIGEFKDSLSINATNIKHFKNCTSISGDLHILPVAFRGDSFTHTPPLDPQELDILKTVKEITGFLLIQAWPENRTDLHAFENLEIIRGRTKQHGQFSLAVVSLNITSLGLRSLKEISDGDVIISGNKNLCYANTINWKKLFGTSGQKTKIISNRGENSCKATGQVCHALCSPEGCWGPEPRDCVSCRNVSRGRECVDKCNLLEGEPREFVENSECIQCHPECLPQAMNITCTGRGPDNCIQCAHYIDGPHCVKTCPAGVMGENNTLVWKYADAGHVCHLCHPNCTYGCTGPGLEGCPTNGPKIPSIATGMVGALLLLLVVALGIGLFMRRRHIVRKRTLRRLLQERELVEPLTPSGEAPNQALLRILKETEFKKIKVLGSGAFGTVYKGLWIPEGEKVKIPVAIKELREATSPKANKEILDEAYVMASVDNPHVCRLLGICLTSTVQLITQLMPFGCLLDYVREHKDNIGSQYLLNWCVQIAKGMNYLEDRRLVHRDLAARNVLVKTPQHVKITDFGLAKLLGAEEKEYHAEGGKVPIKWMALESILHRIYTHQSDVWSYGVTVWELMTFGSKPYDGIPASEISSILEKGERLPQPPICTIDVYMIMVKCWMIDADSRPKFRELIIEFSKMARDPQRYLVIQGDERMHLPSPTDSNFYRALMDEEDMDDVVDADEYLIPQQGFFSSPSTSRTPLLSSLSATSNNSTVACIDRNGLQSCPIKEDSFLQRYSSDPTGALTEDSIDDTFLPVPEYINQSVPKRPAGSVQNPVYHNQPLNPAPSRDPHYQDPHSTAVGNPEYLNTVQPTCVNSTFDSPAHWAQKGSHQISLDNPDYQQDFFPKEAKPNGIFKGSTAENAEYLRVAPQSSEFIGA
Another series deals with T2, TXK (Homo sapiens, UniProt P42681).
T2 sequence (P42681 whole entry): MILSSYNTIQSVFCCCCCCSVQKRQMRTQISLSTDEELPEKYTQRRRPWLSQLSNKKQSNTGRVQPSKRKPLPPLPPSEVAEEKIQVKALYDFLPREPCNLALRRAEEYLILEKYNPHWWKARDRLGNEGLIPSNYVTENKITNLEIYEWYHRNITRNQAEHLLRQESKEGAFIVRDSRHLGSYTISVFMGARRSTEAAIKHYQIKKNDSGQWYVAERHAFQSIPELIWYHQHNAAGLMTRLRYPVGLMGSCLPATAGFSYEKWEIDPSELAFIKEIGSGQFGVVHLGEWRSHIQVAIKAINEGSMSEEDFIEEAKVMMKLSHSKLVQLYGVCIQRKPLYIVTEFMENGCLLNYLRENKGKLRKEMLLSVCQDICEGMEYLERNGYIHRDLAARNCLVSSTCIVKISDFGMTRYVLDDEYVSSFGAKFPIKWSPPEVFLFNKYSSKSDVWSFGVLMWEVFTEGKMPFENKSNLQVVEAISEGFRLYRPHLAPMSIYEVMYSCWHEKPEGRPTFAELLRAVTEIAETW
Description: Inhibition of human full length GST-tagged TXK expressed in baculovirus at 1 uM by Z'-LYTE assay.

The target of another series is ERBB2 (Homo sapiens, UniProt P04626). Description: Inhibition of recombinant human cytoplasmic His-tagged ERBB2 expressed in baculovirus at 1 uM by Z'-LYTE assay.
Sequence of ERBB2 (P04626 whole entry): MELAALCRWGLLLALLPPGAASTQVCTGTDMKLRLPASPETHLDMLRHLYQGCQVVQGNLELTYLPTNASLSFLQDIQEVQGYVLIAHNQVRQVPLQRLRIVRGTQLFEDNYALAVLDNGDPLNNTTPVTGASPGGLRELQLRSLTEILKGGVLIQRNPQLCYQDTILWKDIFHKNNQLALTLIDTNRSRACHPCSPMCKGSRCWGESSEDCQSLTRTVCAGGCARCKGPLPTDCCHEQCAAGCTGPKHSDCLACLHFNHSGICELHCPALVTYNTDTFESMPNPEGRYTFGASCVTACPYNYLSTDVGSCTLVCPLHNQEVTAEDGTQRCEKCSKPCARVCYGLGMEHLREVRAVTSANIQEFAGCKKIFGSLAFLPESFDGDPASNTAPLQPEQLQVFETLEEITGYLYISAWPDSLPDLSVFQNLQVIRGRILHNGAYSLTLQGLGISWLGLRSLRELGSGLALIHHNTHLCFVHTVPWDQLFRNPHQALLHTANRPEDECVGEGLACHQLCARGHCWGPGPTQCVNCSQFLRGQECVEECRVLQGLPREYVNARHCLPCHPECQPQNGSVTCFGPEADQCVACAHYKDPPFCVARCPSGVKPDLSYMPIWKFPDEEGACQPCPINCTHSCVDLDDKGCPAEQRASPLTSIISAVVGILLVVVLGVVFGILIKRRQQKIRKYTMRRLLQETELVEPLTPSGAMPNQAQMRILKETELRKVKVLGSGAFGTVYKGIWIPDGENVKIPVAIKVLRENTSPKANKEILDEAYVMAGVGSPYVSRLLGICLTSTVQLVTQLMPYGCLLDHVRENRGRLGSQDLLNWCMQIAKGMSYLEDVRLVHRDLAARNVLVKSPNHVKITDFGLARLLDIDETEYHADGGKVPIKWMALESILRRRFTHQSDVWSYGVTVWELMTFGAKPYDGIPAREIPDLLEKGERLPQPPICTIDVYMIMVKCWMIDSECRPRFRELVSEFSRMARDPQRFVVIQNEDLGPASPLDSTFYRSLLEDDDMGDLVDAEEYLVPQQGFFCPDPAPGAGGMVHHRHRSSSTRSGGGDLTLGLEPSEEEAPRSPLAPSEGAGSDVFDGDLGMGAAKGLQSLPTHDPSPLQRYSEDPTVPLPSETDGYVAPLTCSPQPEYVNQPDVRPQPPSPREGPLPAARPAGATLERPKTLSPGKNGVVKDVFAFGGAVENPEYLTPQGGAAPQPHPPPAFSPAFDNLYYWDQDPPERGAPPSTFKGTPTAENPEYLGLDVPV
Another series deals with T3, JAK3 (Homo sapiens, UniProt P52333).
T3 sequence (P52333 whole entry): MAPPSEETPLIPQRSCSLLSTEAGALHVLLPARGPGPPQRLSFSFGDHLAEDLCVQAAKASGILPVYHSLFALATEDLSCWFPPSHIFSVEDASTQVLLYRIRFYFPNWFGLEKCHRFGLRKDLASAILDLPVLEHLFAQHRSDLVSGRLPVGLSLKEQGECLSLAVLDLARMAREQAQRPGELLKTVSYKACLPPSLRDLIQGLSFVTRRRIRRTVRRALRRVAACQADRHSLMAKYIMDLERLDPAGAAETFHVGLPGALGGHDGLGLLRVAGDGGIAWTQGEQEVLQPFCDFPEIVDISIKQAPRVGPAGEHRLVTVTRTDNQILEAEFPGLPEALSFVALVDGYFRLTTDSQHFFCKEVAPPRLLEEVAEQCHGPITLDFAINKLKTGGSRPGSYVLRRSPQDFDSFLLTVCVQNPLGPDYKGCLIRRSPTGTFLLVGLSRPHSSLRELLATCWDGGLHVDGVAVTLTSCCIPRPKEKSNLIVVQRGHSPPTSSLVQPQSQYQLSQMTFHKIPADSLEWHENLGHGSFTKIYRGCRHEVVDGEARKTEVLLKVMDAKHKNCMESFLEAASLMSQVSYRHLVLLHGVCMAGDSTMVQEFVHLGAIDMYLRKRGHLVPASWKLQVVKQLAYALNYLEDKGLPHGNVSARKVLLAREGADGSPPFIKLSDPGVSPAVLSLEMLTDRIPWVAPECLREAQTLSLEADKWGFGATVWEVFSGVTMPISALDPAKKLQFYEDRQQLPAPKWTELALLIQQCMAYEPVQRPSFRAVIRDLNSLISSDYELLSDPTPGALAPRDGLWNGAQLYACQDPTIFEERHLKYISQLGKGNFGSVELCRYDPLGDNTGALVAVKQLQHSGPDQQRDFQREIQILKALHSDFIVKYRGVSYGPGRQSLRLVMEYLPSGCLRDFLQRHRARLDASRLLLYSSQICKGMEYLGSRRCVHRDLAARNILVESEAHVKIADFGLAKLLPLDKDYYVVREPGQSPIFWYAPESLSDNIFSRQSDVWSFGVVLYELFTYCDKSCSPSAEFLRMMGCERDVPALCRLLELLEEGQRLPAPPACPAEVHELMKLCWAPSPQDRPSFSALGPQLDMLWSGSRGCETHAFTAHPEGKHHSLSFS
Description: Inhibition of recombinant human catalytic GST-tagged JAK3 expressed in baculovirus at 1 uM by Z'-LYTE assay.

For a further series, the target named is ERBB4 (Homo sapiens, UniProt Q15303). Put plainly: Inhibition of recombinant human cytoplasmic GST-tagged ERBB4 expressed in baculovirus at 1 uM by Z'-LYTE assay.
Sequence of ERBB4 (Q15303 whole entry): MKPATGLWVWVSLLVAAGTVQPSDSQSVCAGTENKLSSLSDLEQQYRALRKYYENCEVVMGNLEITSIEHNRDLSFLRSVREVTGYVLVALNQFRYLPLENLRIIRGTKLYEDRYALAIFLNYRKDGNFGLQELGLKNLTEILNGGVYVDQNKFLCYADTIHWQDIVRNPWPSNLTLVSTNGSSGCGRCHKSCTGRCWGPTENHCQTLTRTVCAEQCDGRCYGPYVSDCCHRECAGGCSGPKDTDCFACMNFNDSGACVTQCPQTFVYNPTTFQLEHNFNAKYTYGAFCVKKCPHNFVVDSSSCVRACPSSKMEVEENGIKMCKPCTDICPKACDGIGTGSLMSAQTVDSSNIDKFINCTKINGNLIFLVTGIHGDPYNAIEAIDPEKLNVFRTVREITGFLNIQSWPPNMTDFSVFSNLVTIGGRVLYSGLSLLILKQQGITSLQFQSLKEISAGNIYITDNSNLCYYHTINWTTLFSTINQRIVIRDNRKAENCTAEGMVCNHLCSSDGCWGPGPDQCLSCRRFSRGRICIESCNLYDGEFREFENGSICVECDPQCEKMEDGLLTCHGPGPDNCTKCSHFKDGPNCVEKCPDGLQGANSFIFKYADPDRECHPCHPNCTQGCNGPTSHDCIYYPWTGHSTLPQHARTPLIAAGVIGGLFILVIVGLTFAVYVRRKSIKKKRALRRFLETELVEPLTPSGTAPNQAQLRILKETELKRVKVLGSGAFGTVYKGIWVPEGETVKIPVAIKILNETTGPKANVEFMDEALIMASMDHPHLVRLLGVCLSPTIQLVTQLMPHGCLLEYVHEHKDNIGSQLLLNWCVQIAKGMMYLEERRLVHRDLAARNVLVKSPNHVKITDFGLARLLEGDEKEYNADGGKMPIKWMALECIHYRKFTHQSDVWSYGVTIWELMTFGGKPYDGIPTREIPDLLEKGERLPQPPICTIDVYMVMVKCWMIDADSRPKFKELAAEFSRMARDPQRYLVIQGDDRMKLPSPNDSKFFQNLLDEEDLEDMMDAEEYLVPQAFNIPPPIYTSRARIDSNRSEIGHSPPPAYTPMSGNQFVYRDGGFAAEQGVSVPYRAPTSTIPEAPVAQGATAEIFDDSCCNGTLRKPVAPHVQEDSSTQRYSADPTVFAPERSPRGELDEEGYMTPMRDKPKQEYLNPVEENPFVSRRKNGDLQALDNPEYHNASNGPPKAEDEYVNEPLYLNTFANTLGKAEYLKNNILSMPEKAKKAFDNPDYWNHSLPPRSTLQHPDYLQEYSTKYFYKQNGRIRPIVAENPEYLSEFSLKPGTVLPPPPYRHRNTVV
In another series the target is BLK (Homo sapiens, UniProt P51451). Put plainly: Inhibition of recombinant human full length His-tagged BLK expressed in baculovirus at 1 uM by Z'-LYTE assay.
Sequence of BLK (P51451 whole entry): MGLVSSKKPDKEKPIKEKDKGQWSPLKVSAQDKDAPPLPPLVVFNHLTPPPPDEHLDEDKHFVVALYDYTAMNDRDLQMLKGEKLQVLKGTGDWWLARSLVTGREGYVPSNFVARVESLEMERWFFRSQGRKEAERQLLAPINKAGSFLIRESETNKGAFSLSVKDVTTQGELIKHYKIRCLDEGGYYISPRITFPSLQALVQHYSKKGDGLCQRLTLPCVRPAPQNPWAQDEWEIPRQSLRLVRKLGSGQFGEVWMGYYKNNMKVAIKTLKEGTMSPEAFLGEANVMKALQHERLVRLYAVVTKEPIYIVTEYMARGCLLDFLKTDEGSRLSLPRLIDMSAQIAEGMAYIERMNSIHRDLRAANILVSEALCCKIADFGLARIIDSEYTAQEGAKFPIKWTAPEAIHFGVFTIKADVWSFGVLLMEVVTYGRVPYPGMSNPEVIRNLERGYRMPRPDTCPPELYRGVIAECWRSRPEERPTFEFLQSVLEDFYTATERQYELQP
The nature of series [1]: Permeability across apical to basolateral in MDCK1 cells. The conditions noted are these: dog, MDCK; read-out: permeability. The class given is ADME, cell-based, Canis lupus familiaris.
Series [2] has as its target T4, Tyrosine-protein kinase BTK (Homo sapiens, UniProt Q06187).
Description: Inhibition of BTK in human whole blood-derived CD19+ B cells assessed as suppression of anti-IgM stimulated-CD69 expression preincubated for 1 hr followed by IgM stimulation for 18 hrs by FACS analysis
Another series can be described thus: in vitro. To be noted: dog, MDCK.
Series [3] addresses T4, Tyrosine-protein kinase BTK. Description: Inhibition of human recombinant C-terminal polyhistidine tagged BTK (1 to 659 residues)-mediated synthetic peptide substrate phosphorylation expressed in baculovirus-infected insect cells.
Series [4] can be described thus: Clearance in human liver microsomes at 1 uM incubated up to 60 mins by LC-MS/MS method. It counts as ADME, microsome. In general terms: Microsomes from liver hold many membrane-bound enzymes, among them those of drug oxidation.
A short description of series [5]: Clearance in human hepatocytes at 1 uM incubated up to 60 mins by LC-MS/MS method. The class given is ADME, cell-based, Hepatocyte.
The nature of another series: physchem. To be noted: buffer, pH 7.4.
A further series concerns the target BMX (Homo sapiens, UniProt P51813). Put plainly: Inhibition of cytoplasmic recombinant human full length His-tagged BMX expressed in baculovirus at 1 uM by Z'-LYTE assay.
Series [6] in a line: Kinetic solubility of the compound. To be noted: read-out: Kinetic_solubility. It counts as physicochemical.
The target in series [7] is T4, Tyrosine-protein kinase BTK. The source holds these as a separate data set.
Description: Inhibition of BTK in human whole blood derived-basophils assessed as suppression of IgE mediated-FcepsilonR ligation-stimulated CD63 expression

≈ marks a conversion by molar mass, not a printed value.

T4 sequence (Q06187 whole entry): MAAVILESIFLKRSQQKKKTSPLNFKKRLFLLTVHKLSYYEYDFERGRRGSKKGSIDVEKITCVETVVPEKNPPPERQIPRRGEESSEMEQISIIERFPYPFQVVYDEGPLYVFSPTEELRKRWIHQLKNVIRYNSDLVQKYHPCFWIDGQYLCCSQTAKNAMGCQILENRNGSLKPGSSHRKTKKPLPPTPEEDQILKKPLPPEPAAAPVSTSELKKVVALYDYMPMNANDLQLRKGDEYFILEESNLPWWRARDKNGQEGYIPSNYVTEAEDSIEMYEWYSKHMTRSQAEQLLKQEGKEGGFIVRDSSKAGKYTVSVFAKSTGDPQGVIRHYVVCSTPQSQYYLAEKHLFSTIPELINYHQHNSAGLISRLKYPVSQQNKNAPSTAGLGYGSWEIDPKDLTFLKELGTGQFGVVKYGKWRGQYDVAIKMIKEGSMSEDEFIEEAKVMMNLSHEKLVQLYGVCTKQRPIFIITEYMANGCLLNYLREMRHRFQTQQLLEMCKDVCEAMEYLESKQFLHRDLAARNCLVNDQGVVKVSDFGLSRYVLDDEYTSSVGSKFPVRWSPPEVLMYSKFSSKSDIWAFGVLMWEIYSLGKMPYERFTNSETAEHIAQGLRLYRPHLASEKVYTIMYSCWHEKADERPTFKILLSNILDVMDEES
Description for in vitro: Efflux ratio of permeability in MDCK1 cells

Turning to `CC#CC(=O)N1CC[C@@H](n2c(=O)n(-c3ccc(Oc4ccccc4)cc3)c3c(N)ncnc32)C1` [TIRABRUTINIB], the inhibition – broadly, the change of the read-out against control, counted positive when it falls – at 1 µM at LTK was -5%; on TEC it was 86%; on EGFR, -2%; against TXK, 66%; at ERBB2 it was 7%; at JAK3, -7%. For the same compound, the values for the inhibition at 1 µM at ERBB4 and on BLK were 28% and 47%, respectively.

As for `C=CC(=O)N1CCC[C@@H](n2nc(-c3ccc(Oc4ccccc4)cc3)c3c(N)ncnc32)C1` [IBRUTINIB], the inhibition at 1 µM on LTK amounted to 81%; at TEC, 100%; against TXK it was 93%; at ERBB2, 91%; on JAK3 it was 80%; at ERBB4, 93%. Further, the inhibition at 1 µM at BLK worked out at 102%.

In the case of `C[C@H]1CN(C2COC2)CCN1c1cnc(Nc2cc(-c3ccnc(N4CCn5c(cc6c5CC(C)(C)C6)C4=O)c3CO)cn(C)c2=O)cn1`, the Papp A→B in series [1] stood at 15.6 ×10⁻⁶ cm/s. In series [2], the IC50 (usually the concentration that gives 50% inhibition) stood at 51.5 nM. Further, the efflux ratio (usually a quotient of directional permeabilities that is used to spot active efflux) in the series “in vitro” was 1.2. For the same compound, the Ki (in general, the dissociation constant of the complex between target and ligand, obtained from inhibition or displacement) in series [3] amounted to 0.8 nM. The CLhep predicted at 1 µM was 12 mL/min/kg in series [4] and 10 mL/min/kg in series [5].

As for `CC#CC(=O)N1CCC[C@H]1c1nc(-c2ccc(C(=O)Nc3ccccn3)cc2)c2c(N)nccn12` [ACALABRUTINIB], the inhibition at 1 µM on LTK was 2%; on TEC it was 71%; at EGFR, -1%; against TXK, 31%; at ERBB2, 36%; at JAK3, -3%. The values for the inhibition at 1 µM on ERBB4 and at BLK were 93% and 16%, respectively.

Regarding `C[C@@H]1CN(C2COC2)CCN1c1ccc(Nc2cc(-c3ccnc(N4CCn5c(cc6c5CC(C)(C)C6)C4=O)c3CO)cn(C)c2=O)nc1`, the Papp A→B in [1] was 7.8 ×10⁻⁶ cm/s. In addition, the pH-dependent lipophilicity (logD) (in general, the decadic logarithm of the distribution of all forms, ionised or not, between an organic phase and buffer at a given pH) in the series “physchem” was 2.8. Moreover, the CLhep predicted at 1 µM in [4] is 15 mL/min/kg; in series [5], 14 mL/min/kg.

For `C=CC(=O)N1CCC(CNc2ncnc(N)c2-c2ccc(Oc3ccccc3)cc2)CC1` [EVOBRUTINIB], the inhibition at 1 µM on LTK was -2%; on TEC it was 80%; on EGFR, 1%; at TXK, 30%; at ERBB2, 1%; at JAK3, 0%. For the same compound, the inhibition at 1 µM is 57% on ERBB4 and 42% at BLK.

Turning to `C=CC(=O)Nc1cccc(Nc2nc(Nc3ccc(OCCOC)cc3)ncc2F)c1` [SPEBRUTINIB], the inhibition at 1 µM on LTK was 19%; on TEC, 92%; at EGFR, 34%; at TXK it was 95%; at ERBB2 it was 6%; on JAK3, 89%. Besides, the inhibition at 1 µM was found to be 76% at ERBB4, 44% at BLK and 99% on BMX.

Consider `Cn1cc(-c2cc(F)cc(N3CCn4c(cc5c4CCCC5)C3=O)c2CO)cc(Nc2ccc(N3CCN(C4COC4)CC3)cn2)c1=O`, for which the logD in the series “physchem” worked out at 3.1. In addition, in [4], the CLhep predicted at 1 µM was 12.3 mL/min/kg. Further, the solubility kinetic in [6] turned out to be 12 µM (≈ 7.85 µg/mL).

In the case of `Cc1c(-c2c(F)cc(C(N)=O)c3[nH]c4c(c23)CC[C@@H](C(C)(C)O)C4)cccc1-n1c(=O)c2cccc(F)c2n(C)c1=O`, the inhibition at 1 µM at LTK is 47%; at TEC, 98%; on EGFR it was 7%; at TXK, 81%; on ERBB2 it was 1%; at JAK3, -2%. In addition, the inhibition at 1 µM came to 38% at ERBB4, 82% on BLK and 80% on BMX. Moreover, the IC50 is 88.3 nM in series [2] and 374 nM in [7].

As to `CC[C@H]1CN(C2COC2)CCN1c1ccc(Nc2cc(-c3ccnc(N4CCn5c(cc6c5CC(C)(C)C6)C4=O)c3CO)cn(C)c2=O)nc1`, the Papp A→B in [1] turned out to be 9.5 ×10⁻⁶ cm/s. In addition, in series [2], it took 15.9 nM to reach half-maximal inhibition (IC50). The efflux ratio in the series “in vitro” was 0.9. The Ki in [3] is 0.96 nM. Further, the logD in “physchem” was 3.6. For the same compound, the figures for the CLhep predicted at 1 µM in series [4] and in series [5] were 12 mL/min/kg and 16 mL/min/kg, respectively.

Consider `C[C@H]1CN(C2COC2)CCN1c1ccc(Nc2cc(-c3ccnc(N4CCn5c(cc6c5CC(C)(C)C6)C4=O)c3CO)nn(C)c2=O)nc1`, for which, in [1], the Papp A→B is 17.3 ×10⁻⁶ cm/s. For the same compound, it took 16.1 nM to reach half-maximal inhibition in series [2] (IC50). Moreover, the efflux ratio in the series “in vitro” was determined as 0.9. The logD in “physchem” stood at 3.7. Moreover, the CLhep predicted at 1 µM in series [4] was 11 mL/min/kg; in series [5], 13 mL/min/kg.

Regarding `C[C@@H]1CN(c2ccc(Nc3cc(-c4ccnc(N5CCn6c(cc7c6CC(C)(C)C7)C5=O)c4CO)cn(C)c3=O)nc2)[C@@H](C)CN1C1COC1`, the Papp A→B in series [1] was determined as 7.2 ×10⁻⁶ cm/s. Further, it took 10.2 nM to reach half-maximal inhibition in series [2] (IC50). For the same compound, the efflux ratio in the series “in vitro” was 0.9. The Ki in [3] is 1.3 nM. Also, in the series “physchem”, the logD was 3.5. Besides, the CLhep predicted at 1 µM in series [4] and in [5] was 12 mL/min/kg each time.

The values are drawn from ChEMBL document CHEMBL4020831, “Discovery of GDC-0853: A Potent, Selective, and Noncovalent Bruton's Tyrosine Kinase Inhibitor in Early Clinical Development” (J Med Chem, 2018).
